Test results as given in patent US20180116983A1, “COMPOUNDS FOR TREATING DISORDERS ASSOCIATED WITH BK CHANNEL MODULATION” (Canbex Therapeutics Limited, priority 2015, published 2018).

How the values were obtained:
[1] = biological target: T1, BKCa channels formed by the exon-less alpha subunit (Homo sapiens, UniProt Q12791); assay: Whole-cell BKCa current in HEK293 cells expressing the alpha subunit alone; assay type: cell-based; details: HEK293
T1 construct: expressed in transfected cells; host or cells: HEK293

[2] = biological target: T2, KNCMA1 (Sus scrofa, UniProt O18866); assay: Whole-cell current in primary pig aortic endothelial cells; assay type: cell-based
T2 construct: endogenous in cells; host or cells: primary pig aortic endothelial cells
From the text: Pig aortic endothelial cells only express KNCMAI and not KNCMB1-4 (Papassotiriou et al). Thus, the absence of stimulation indicates a lack of effect on KNCMA1.

[3] = test system: C57BL/6.Fmr1 knockout mice; assay: Contextual fear conditioning in Fmr1 knockout mice; assay type: in vivo, mouse; details: wildtype mice; 2 mg/kg
Method: Animals: C57BL/6.J. Fmr1-K02 mice, which have a deletion of the promoter and exonl of the Fmr1 gene (Mientjes et al., 2006) and C57BL/6J wild type (WT) were originated from the Jackson laboratory (Ann Harbor, USA). Mice were housed in groups (4-6 per cage) and all animals were provided with ad libitum food and water unless otherwise stated. Mice were maintained on a 12 h light/12 h dark cycle (lights off 19:00 to 7:00) in a temperature-controlled environment (21±1° C.). Testing was conducted in the light phase. Mice were housed in commercial cages and experiments were performed in line with the United Kingdom Animals (Scientific procedures) Act 1986. All experiments were conducted with experimentors blind to genotype and drug treatment. Each experimental group contained 10 animals.
Drug Treatment: VSN16R was dissolved in saline for injection intravenously via a tail vein using 2 mg/kg a 30 g needle in a volume of 0.1 ml. Animals were inspected for differences in coat appearance, to detect whether any piloerection was present. The eye condition (runny eyes or porphyria, ptosis), gait appearance, tremor, tail tone, reactivity to handling was assessed to detect adverse behavioural effect.
Contextual fear conditioning: Animals are trained to expect an electroshock treatment within a defined environment, such that on subsequent presentation of the environment, freezing behaviours are induced. […]

[4] = test system: mesenteric arteries; details: cited from earlier work
[5] = biological target: T3, BK channel (Homo sapiens, UniProt Q12791); assay: Inside-out patch clamp (single channel) on EA.hy926 cells; assay type: cell-based; parameters: The human umbilical vein derived endothelial cell line, EA.hy926; endogenous in cells; host or cells: EA.hy926 human endothelial cell line; details: human EA.hy926 cells, calcium dependent
Method: The human umbilical vein derived endothelial cell line, EA.hy926 (Edgell et al., Proc Natl Acad Sci USA. 1983 June; 80(12): 3734-7) at passage >45 was grown in DMEM containing 10% FCS and 1% HAT (5 mM hypoxanthine, 20 μM aminopterin, 0.8 mM thymidine) and cells were maintained in an incubator at 37° C. in 5% CO2 atmosphere. Cells were plated on either 10 mm (for patch-clamp recordings) or 30 mm glass cover slips (for Ca^2+ measurements).
Single-channel recordings were obtained from excised inside-out membrane patches in symmetrical solutions. The pipettes were filled with (in mM) 140 KCl, 10 HEPES, 1 MgCl2, 5 EGTA, 4,931 CaCl2 with pH 7.2 by adding KOH (i.e. 10 μM free Ca^2+, G. Droogmans, Leuven, Belgium; ftp://ftp.cc.kuleuven.ac.be/pub/droodmans/cabuf.zip). Cells were perfused with a standard bath solution containing (in mM) 140 NaCl, 5 KCl, 1.2 MgCl2, 10 HEPES, 10 glucose, 2.4 CaCl2. Following gigaseal formation, bath solution was switched to the following (in mM) 140 KCl, 10 HEPES, 1 MgCl2, 5 EGTA and a desired free Ca^2+ concentration which was adjusted by adding different amounts of CaCl2 calculated by the program CaBuf. pH was adjusted to 7.2 by adding KOH. Membrane currents and potential were recorded using a List EPC7 amplifier (List, Germany) and pClamp (version 8.2, Axon Instruments) software.
Target sequence in this assay (Q12791 1-1178 isoform Q12791-5): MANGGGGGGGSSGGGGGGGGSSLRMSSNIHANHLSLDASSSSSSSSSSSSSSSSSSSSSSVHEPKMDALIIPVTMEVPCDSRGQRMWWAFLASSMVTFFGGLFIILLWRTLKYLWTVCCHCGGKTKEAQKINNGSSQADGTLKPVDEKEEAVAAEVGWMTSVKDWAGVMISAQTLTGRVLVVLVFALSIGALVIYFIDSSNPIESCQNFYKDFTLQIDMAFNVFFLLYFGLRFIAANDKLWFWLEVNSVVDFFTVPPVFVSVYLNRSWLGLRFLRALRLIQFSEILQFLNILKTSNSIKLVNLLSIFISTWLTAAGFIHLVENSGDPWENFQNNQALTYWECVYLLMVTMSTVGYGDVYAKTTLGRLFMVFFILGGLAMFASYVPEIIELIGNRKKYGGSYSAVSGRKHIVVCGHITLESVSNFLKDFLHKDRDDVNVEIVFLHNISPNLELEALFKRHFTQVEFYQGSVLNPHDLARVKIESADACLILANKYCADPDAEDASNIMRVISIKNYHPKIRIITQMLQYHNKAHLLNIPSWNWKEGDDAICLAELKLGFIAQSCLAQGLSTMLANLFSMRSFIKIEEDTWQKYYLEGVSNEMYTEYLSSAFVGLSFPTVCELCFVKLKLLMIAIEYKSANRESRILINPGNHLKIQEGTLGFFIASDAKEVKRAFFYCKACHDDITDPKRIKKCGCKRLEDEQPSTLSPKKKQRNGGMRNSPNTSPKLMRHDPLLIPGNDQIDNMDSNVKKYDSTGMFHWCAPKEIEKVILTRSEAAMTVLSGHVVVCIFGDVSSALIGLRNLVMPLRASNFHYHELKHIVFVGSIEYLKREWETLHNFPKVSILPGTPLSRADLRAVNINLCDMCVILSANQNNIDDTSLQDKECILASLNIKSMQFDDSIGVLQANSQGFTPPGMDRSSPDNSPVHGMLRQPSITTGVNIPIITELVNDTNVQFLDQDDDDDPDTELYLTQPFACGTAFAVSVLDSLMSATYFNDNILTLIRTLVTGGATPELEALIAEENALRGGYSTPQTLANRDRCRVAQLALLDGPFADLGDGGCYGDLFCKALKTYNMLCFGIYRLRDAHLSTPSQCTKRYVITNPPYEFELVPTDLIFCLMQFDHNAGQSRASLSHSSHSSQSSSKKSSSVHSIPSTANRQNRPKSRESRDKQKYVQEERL
Target sequence in this assay (Q86W47 whole entry partner): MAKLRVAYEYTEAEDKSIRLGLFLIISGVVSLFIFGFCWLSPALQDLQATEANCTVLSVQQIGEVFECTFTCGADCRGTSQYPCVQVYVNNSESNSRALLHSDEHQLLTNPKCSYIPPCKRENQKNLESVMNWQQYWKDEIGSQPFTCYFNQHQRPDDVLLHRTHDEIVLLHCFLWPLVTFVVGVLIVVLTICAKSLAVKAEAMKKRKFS

[6] = test system: salicylate-induced tinnitus in rats; details: cited from earlier work
[7] = test system: OVA- and HDM-sensitized mice; details: cited from earlier work
[8] = test system: murine ex vivo lung slices; details: cited from earlier work
[9] = biological target: T3, BK channel; parameters: host or cells: human airway smooth muscle (ASM) cells; details: human ASM cells; cited from earlier work
Target sequence in this assay (Q12791 whole entry): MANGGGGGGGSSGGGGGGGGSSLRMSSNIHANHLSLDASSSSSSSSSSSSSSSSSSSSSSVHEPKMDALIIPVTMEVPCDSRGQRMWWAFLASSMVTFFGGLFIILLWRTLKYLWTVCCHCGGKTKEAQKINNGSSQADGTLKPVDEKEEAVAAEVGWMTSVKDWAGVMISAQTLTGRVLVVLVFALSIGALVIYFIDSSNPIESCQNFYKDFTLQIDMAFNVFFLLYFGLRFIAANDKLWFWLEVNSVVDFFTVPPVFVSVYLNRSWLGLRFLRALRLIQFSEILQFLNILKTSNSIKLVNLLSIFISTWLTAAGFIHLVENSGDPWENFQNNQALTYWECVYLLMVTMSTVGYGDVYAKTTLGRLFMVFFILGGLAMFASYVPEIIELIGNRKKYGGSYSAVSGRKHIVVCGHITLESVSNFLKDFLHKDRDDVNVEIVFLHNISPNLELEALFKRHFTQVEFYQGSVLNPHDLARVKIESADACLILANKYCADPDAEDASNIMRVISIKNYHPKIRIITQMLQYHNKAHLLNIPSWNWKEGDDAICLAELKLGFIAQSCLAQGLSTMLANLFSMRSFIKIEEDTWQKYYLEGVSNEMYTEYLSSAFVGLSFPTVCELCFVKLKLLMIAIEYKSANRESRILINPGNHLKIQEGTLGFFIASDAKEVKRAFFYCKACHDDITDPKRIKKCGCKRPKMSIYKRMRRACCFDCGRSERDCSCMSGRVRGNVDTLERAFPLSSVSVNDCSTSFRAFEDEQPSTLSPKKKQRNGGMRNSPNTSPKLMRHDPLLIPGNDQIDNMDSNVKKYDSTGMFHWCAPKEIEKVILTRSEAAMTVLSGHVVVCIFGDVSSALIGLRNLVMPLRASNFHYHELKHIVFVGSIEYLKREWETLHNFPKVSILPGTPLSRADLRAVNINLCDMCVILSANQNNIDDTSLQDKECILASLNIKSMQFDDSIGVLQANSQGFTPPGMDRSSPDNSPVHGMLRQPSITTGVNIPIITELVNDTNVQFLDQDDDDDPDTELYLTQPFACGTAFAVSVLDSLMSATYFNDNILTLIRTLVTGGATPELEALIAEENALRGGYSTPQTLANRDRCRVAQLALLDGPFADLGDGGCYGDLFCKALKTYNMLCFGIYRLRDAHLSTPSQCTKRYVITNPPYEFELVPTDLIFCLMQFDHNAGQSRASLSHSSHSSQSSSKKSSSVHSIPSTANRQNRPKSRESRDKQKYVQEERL

[10] = test system: isolated hearts; details: after cold cardioplegic arrest; cited from earlier work
[11] = test system: rat models of permanent large-vessel stroke; details: cited from earlier work
[12] = test system: Fmr1 knockout mouse; details: cited from earlier work
[13] = biological target: maxi-K channels (Homo sapiens, UniProt Q12791); details: cited from earlier work
Chain of maxi-K channels (Q12791 whole entry): as above

T1 sequence (Q12791 1-1178 isoform Q12791-5): as the sequence (Q12791 1-1178 isoform Q12791-5) above
T2 sequence (O18866 whole entry): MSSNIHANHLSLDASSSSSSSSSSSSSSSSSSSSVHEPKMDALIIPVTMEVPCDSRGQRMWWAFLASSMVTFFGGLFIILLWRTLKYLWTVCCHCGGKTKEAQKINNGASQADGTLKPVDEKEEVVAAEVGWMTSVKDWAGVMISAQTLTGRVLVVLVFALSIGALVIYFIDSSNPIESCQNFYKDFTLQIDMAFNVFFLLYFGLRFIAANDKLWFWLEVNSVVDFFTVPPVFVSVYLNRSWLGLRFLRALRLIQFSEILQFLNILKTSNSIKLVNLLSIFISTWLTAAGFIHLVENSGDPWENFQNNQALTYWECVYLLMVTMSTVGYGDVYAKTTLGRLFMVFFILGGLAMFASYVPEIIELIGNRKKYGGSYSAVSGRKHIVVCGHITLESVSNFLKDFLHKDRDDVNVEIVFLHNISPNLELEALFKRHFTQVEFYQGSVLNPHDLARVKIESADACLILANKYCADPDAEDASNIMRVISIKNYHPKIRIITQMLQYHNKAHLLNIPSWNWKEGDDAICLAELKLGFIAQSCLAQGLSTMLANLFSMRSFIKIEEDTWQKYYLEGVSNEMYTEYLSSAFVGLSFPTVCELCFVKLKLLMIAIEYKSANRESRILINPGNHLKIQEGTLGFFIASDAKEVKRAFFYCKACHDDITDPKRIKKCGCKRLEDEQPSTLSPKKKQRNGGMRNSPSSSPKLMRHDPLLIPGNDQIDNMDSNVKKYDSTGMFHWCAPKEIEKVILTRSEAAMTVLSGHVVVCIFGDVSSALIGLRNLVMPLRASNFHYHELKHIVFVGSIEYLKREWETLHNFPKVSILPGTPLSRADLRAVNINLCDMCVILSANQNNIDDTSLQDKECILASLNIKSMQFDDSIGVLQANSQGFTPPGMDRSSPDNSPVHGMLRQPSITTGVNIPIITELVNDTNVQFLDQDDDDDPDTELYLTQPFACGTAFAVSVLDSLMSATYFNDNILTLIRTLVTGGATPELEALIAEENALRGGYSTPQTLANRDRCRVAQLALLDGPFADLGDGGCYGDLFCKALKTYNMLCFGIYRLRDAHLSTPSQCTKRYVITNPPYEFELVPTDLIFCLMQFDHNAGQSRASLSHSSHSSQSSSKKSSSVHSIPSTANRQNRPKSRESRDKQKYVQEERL

## CC[N+](CC)(CC)CC [TEA, reference compound]
[1]; 5 mM
  suppression of BKCa current: consistently suppressed the BKCa current

## CC(CO)NC(=O)c1cccc(/C=C\CCCC(=O)N(C)C)c1 (centres unmarked) [VSN16]
[2]; no BK beta chains
  effect on current: does not stimulate pig aortic endothelial cells
[3]
  fear conditioning and digging behaviour in wildtype mice: exhibited no-inhibitory effect
[4]
  relaxation of mesenteric arteries: relaxed mesenteric arteries in an endothelium-dependent manner
[4]; high concentrations of the antagonists
  vasorelaxation in the presence of rimonabant, AM 251 or O-1918: antagonized

## CC(NC(=O)c1cccc(/C=C\CCCC(=O)N(C)C)c1)C(=O)O [VSN44R, (Z)-(3-(6-(dimethylamino)-6-oxohex-1-en-1-yl)benzoyI)-D-alanine]
[5]
  activation of the response of the channel: activation of the response of the channel

## Clc1ccccc1C(c1ccccc1)(c1ccccc1)n1cccn1 [TRAM-34, reference compound]
[2]; IK channel blocker after VSN16R
  effect on residual current: a minor effect on this residual current

## CC(C)(O)[C@H]1O[C@H]2CC[C@@]3(C)[C@@](O)(CC[C@H]4Cc5c([nH]c6ccccc56)[C@@]43C)C2=CC1=O [paxilline, (2R,4bS,6aS,12bS,12cR,14aS)-5,6,6a,7,12,12b,12c,13,14,14a-Decahydro-4b-hydroxy-2-(1-hydroxy-1-methylethyl)-12b,12c-dimethyl-2H-pyrano[2″,3″:5′,6′]benz[1′,2′:6,7]indeno[1,2-b]indol-3(4bH)-one, reference compound]
[1]; 10 μM
  suppression of BKCa current: suppressed
[1]; 10 μM, listed as Paxilline
  suppression of BKCa current: consistently suppressed the BKCa current

## COc1ccc(Cl)cc1[C@@]1(F)C(=O)Nc2cc(C(F)(F)F)ccc21 [R-Maxipost]
[6]; dose not given
  effect on tinnitus: maintained the positive effect on tinnitus

## CC(=O)c1c(O)c(C)c(O)c(Cc2c(O)c3c(c(C(=O)/C=C/c4ccccc4)c2O)OC(C)(C)C=C3)c1O [rottlerin]
[7]; bronchoalveolar lavage fluid
  reduction in Th2 cytokines: 20-35%
  reduction in inflammatory cells: 35-40%
[7]; intravenous, within 5 minutes, OVA-asthma mice, P<0.01
  reduction of AHR: 45%
[7]; systemic administration
  methacholine-induced airway hyperreactivity (AHR): reduces methacholine-induced airway hyperreactivity
[8]
  frequency of acetylcholine-induced Ca2+ oscillations: reduces the frequency of acetylcholine-induced Ca^2+ oscillations
[9]
  BK channel activity: increases BK channel activity
[10]
  cardiac contractile performance and coronary perfusion: increases cardiac contractile performance and coronary perfusion

## COc1ccc(Cl)cc1[C@]1(F)C(=O)Nc2cc(C(F)(F)F)ccc21 [BMS-204352]
[11]; administered two hours after onset of occlusion
  cortical neuroprotection: provided significant levels of cortical neuroprotection
[11]; rat, in vivo
  blood pressure or cerebral blood flow: had no effect on blood pressure or cerebral blood flow
[6]; 10 mg/kg
  behavioural effects of tinnitus: abolished
[12]
  FXS-associated phenotypes: could inhibit the FXS-associated phenotypes
[13]
  opening of maxi-K channels: potent, effective and uniquely Ca^2+-sensitive opener

## Nc1ncc(Cc2ccc(Br)cc2)s1 [NS19504, 5-[(4-bromophenyl)methyl]-2-thiazolannine, reference compound]
[1]; 10 μM, steps −40 mV to +70 mV, 200 nM calcium
  enhancement of BKCa current: approximately doubled
